Experimental data as given in patent publication US11976083B2, “Inhibitors of peptidylarginine deiminases” (Gilead Sciences, Inc., priority 2020, dated 2024).

Biological target: T1, human PAD4 (Homo sapiens, UniProt Q9UM07)
T1 construct: human PAD4 (NM_012387), A2-P663, was PCR amplified; His-SUMO (N, cleaved yes); made in house; host or cells: E. coli BL21(DE3)
Test: In vitro PAD4 BAEE biochemical assay
Conditions: BAEE substrate 3 mM, 5 nM PAD4, 2 mM calcium chloride; geometric mean of multiple experiments
How it was run: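 Assay was run at 25 °C using 3 mM BAEE and 5 nM human PAD4 after a 30 min compound preincubation; ammonia produced over 2 h was quantified by OPA-derived fluorescence. Full inhibition was defined by 50 µM BB-Cl-Amidine, and IC50 came from variable-slope nonlinear regression.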

T1 sequence (Q9UM07 2-663): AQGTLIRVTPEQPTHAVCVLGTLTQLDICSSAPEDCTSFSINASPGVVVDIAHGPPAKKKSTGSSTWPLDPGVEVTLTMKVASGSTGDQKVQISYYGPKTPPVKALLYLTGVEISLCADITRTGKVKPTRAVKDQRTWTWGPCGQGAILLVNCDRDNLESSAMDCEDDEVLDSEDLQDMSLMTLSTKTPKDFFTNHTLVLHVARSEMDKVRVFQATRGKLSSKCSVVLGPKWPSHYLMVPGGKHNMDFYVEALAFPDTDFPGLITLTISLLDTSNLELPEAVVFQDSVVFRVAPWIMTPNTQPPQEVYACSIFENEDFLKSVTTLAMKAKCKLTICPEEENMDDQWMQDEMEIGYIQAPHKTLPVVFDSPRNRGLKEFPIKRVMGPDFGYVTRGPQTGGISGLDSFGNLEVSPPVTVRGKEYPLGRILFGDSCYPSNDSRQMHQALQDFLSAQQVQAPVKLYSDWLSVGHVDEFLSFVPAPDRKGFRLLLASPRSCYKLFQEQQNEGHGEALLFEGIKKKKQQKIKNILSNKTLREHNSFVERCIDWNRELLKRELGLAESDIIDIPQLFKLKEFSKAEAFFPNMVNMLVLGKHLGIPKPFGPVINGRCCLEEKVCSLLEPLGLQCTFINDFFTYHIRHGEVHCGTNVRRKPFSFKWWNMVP

Compound	IC50 [nM]
COc1cc(C(=O)N2CC[C@@H](OC(F)(F)F)[C@@H](N)C2)cc2nc(-c3cc4ccc5nc4n3CCCCC[C@@H]3C[C@H]3C(=O)N[C@@H]5C)n(C)c12 [Example 582, (2~{R},5~{R},7~{R})-14-[5-[(3~{S},4~{R})-3-amino-4-(trifluoromethoxy)piperidine-1-carbonyl]-7-methoxy-1-methyl-benzimidazol-2-yl]-2-methyl-3,13,19-triazatetracyclo[11.5.2.0^ {5,7}.0^{16,20}]icosa-1(19), 14,16(20),17-tetraen-4-one]	271
COc1cc(C(=O)N2CC[C@@H](OC)[C@@H](N)C2)cc2nc(-c3cc4ccc5nc4n3CCCCC[C@@H]3C[C@@]3(C)C(=O)N[C@@H]5C)n(C)c12 [Example 583, (2~{R},5~{R},7~{R})-14-[5-[(3~{S),4~{R})-3-amino-4-methoxy-piperidine-1-carbonyl]-7-methoxy-1-methyl-benzimidazol-2-yl]-2,5-dimethyl-3,13,19-triazatetracyclo[11.5.2.0^ {5,7}.0^{16,20}]icosa-1(19), 14,16(20),17-tetraen-4-one]	69
COc1cc(C(=O)N2[C@H]3CC[C@@H]2[C@H](N)[C@H](OC)C3)cc2nc(-c3cc4ccc5nc4n3CCCCC[C@@H]3C[C@H]3C(=O)N[C@@H]5C)n(C)c12 [Example 584, (2~{R},5~{R},7~{R})-14-[5-[(1~{R},2~{S},3~ {R},5~{S})-2-amino-3-methoxy-8-azabicyclo[3.2.1]octane-8-carbonyl]-7-methoxy-1-methyl-benzimidazol-2-yl]-2-methyl-3,13,19-triazatetracyclo [11.5.2.0^{5,7}.0^{16,20}] icosa-1(19),14,16(20), 17-tetraen-4-one]	51
COc1cc(C(=O)N2CC[C@@H](OC)[C@@H](N)C2)cc2nc(-c3cc4ccc5nc4n3CC(F)(F)CCC[C@@H]3C[C@@]3(C)C(=O)N[C@@H]5C)n(C)c12 [Example 585, (2~{R},5~{R},7~{R})-14-[5-[(3~{S},4~{R})-3-amino-4-methoxy-piperidine-1-carbonyl]-7-methoxy-1-methyl-benzimidazol-2-yl]-11,11-difluoro-2,5-dimethyl-3,13,19-triazatetracyclo[11.5.2.0^ {5,7}.0^{16,20}]icosa-1(19),14,16(20),17-tetraen-4-one]	74
COc1cc(C(=O)N2CC[C@@H](OC)[C@@H](N)C2)cc2nc(-c3cc4ccc5nc4n3CCCCCC[C@@H]3C[C@H]3C(=O)N[C@@H]5C)n(C)c12 [Example 586, (2~{R},5~{R},7~{R})-15-[5-(3~{S),4~{R})-3-[amino-4-methoxy-piperidine-1-carbonyl]-7-methoxy-1-methyl-benzimidazol-2-yl]-2-methyl-3,14,20-triazatetracyclo[12.5.2.0^ {5,7}.0^{17,21}] henicosa-1(20),15,17(21), 18-tetraen-4-one]	88
COc1cc(C(=O)N2CC[C@@H](OC)[C@@H](N)C2)cc2nc(-c3cc4ccc5nc4n3CC(F)(F)CCCC(C)(C)C(=O)N[C@@H]5C)n(C)c12 [Example 587, (10~{R})-16-[5-[(3~{S},4~ {R})-3-amino-4-methoxy-piperidine-1-carbonyl]-7-methoxy-1-methyl-benzimidazol-2-yl]-3,3-difluoro-7,7,10-trimethyl-1,9,18-triazatricyclo[9.5.2.0^ {14,17}]octadeca-11(18),12,14(17), 15-tetraen-8-one]	163
COc1cc(C(=O)N2CC[C@@H](OC)[C@@H](N)C2)cc2nc(-c3cc4ccc5nc4n3CC(F)(F)CCCOC(C)(C)C(=O)N[C@@H]5C)n(C)c12 [Example 588, (11~{R})-17-[5-[(3~{S},4~ {R})-3-amino-4-methoxy-piperidine-1-carbonyl]-7-methoxy-1-methyl-benzimidazol-2-yl]-3,3-difluoro-8,8,11-trimethyl-7-oxa-1,10,19-triazatricyclo[10.5.2.0^ {15,18}]nonadeca-12(19),13,15(18), 16-tetraen-9-one]	193
COc1cc(C(=O)N2CC[C@@H](OC)[C@@H](N)C2)cc2nc(-c3cc4ccc5nc4n3CC(F)(F)CCCOC3(CC3)C(=O)N[C@@H]5C)n(C)c12 [Example 589, (11~{R})-17-[5-[(3~{S},4~ {R})-3-amino-4-methoxy-piperidine-1-carbonyl]-7-methoxy-1-methyl-benzimidazol-2-yl]-3,3-difluoro-11-methyl-spiro[7-oxa-1,10,19-triazatricyclo[10.5.2.0^ {15,18}]nonadeca-12(19), 13,15(18),16-tetraene-8,1′-cyclopropane]-9-one]	145
COc1cc(C(=O)N[C@H]2CNCC[C@@H]2F)cc2nc(-c3cc4ccc5nc4n3Cc3ccccc3CCCCC(=O)N[C@@H]5C)n(C)c12 [Example 590, ~{N}-[(3~{S},4~{S})-4-fluoro-3-piperidyl]-7-methoxy-1-methyl-2-[(15~{R})-15-methyl-13-oxo-1,14,23-triazatetracyclo[14.5.2.0^ {3,8}.0^{19,22}]tricosa-3(8),4,6,16,18,20,22-heptaen-21-yl] benzimidazole-5-carboxamide]	683
C[C@H]1NC(=O)C(C)(C)CCCCCCn2c(-c3nc4cc(C(=O)N[C@H]5CNCC[C@@H]5F)c(F)cc4n3C)cc3ccc1nc32 [Example 591, 6-fluoro-~{N}-[(3~{S},4~ {S})-4-fluoro-3-piperidyl]-1-methyl-2-[(11~ {R})-8,8,11-trimethyl-9-oxo-1,10,19-triazatricyclo [10.5.2.0^{15,18}]nonadeca-12,14,16,18-tetraen-17-yl]benzimidazole-5-carboxamide]	81
COc1cc2c(cc1C(=O)N[C@H]1CNCC[C@@H]1F)nc(-c1cc3ccc4nc3n1CCCCCCC(C)(C)C(=O)N[C@@H]4C)n2C [Example 592, ~{N}-[(3~{S},4~{S})-4-fluoro-3-piperidyl]-6-methoxy-1-methyl-2-[(11~{R})-8,8,11-trimethyl-9-oxo-1,10,19-triazatricyclo[10.5.2.0^ {15,18}]nonadeca-12,14,16,18-tetraen-17-yl]benzimidazole-5-carboxamide]	175
C[C@H]1NC(=O)c2ccccc2CCCCCn2c(-c3nc4cc(C(=O)N[C@H]5CNCC[C@@H]5F)c(F)cc4n3C)cc3ccc1nc32 [Example 593, 6-fluoro-~{N}-[(3~{S},4~ {S})-4-fluoro-3-piperidyl]-1-methyl-2-[(2~{R})-2-methyl-4-oxo-3,16,22-triazatetracyclo[14.5.2.0^ {5,10}.0^{19,23}]tricosa-1(21),5(10),6,8,17, 19,22-heptaen-17-yl] benzimidazole-5-carboxamide]	44
COc1cc(C(=O)N[C@H]2CNCC[C@@H]2F)cc2nc(-c3cc4ccc5nc4n3CC(F)(F)CCCCC(C)(C)C(=O)N[C@@H]5C)n(C)c12 [Example 594, 2-[(11~{R})-3,3-difluoro-8,8,11-trimethyl-9-oxo-1,10,19-triazatricyclo [10.5.2.0^{15,18}]nonadeca-12,14,16,18-tetraen-17-yl]-~ {N}-[(3~{S},4~{S})-4-fluoro-3-piperidyl]-7-methoxy-1-methyl-benzimidazole-5-carboxamide]	112
